Experiment [1] has as its target T1, IRP1 binding to HIF-2a IRE (Homo sapiens, UniProt P21399).
T1 sequence (P21399 1-889): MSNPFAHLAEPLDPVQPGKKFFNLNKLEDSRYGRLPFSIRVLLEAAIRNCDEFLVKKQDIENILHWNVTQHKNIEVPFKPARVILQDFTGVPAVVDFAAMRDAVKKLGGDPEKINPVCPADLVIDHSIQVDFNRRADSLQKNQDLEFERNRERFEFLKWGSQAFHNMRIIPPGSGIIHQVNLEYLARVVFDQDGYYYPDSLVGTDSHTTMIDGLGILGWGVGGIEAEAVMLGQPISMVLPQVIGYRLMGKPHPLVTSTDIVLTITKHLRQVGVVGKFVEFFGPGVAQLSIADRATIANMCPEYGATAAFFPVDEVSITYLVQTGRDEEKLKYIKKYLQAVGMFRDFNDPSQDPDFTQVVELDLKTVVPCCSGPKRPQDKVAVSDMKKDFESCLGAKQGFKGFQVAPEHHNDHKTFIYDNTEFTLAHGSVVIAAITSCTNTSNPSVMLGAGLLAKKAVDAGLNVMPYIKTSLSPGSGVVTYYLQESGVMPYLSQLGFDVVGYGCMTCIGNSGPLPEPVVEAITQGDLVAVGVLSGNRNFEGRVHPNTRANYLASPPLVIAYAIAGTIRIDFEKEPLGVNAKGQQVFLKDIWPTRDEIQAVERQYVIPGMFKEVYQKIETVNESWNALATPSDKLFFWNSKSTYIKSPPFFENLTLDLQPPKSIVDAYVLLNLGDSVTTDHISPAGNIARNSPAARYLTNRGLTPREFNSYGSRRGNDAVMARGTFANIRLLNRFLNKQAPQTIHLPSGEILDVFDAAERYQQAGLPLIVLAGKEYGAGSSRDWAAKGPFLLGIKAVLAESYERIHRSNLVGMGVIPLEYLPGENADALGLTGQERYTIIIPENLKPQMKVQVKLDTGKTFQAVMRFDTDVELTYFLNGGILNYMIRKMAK
As to the kind of experiment: Electrophoretic mobility shift assay, HIF-2a IRE probe. As to conditions: for binding of IRP1 to HIF-2a IRE probe: lysates of treated 786-O cells, EMSA. As for the experimental part:
EMSAs were performed as described previously (Fillebeen et al., 2003). Briefly, 50 μg lysate from 786-O cells treated with medium only, DMSO, or compounds were incubated with 25,000 cpm wild-type or mutant radiolabeled HIF-2a IRE probe for 20 minutes at room temperature before loading onto non-denaturing acrylamide gels. Supershifts were performed identically, save that 0.2 μg control, IRP1 or IRP2 antibodies were also added. Total protein content was estimated by Bradford Assay (BioRad, 500-0006), and even loading for all experiments was confirmed by Western blot for B-Actin.
The inventors next tested the effect of hypoxia on the binding of IRP1 to the HIF-2a wild-type IRE. […] This is due to decreased mRNA binding, as western blots confirm that neither compound application nor hypoxia affects IRP1 protein expression. The involvement of IRP1 was further confirmed with super-shifting experiments with IRP1 antibody (FIG. 7C). No supershifted bands were observed using IRP2 antibody.
Inventors discovered that compound 76 increased the residual amount of IRP1 bound to the HIF-2a IRE in hypoxia, although not to the same extent as that observed in normoxic cells. […] Lastly, to further investigate the involvement of IRP2 in HIF-2a IRE, the inventors compared side by side IRP2 binding to HIF-2a and Ferritin-L IRE in 786-O cells, in conditions of normoxia or hypoxia and after treatment with compound 76 or DFO (FIG. 7E). While IRP2 binding was clearly detected on Ferritin IRE, the inventors were not able to detect measurable IRP2 binding on HIF-2a IRE.
To examine this latter possibility the inventors performed an electophoretic mobility shift assay (EMSA) using a radiolabeled wild type or mutant IRE probe to determine if IRP1 binding is increased (FIG. 18A). […] This shifted band can be supershifted with IRP1 but not IRP2 antibodies (data not shown). To further examine the ability of PGJ2 to enhance IRP1 activity under conditions of normoxia and hypoxia the inventors tested its effect at various concentrations of ambient oxygen, corresponding to physiologic or extreme conditions of tissue oxygenation.
(In general: Mobility shift assays separate free from complexed probe on a gel.)

The test system of experiment [2] is putative IRE in HIF-1a 5′-UTR. As to the kind of experiment: Luciferase reporter with putative HIF-1a IRE. In kind it is cell-based, human. The following applies: 786-O derived reporter lines, normoxia or 1% oxygen. The method, then:
The consensus sequence of the loop and the mandatory 5′ cytosine bulge are highlighted with light blue circles. […] Duplicate plates of 786-O derived lines expressing the putative wild-type or mutant HIF-1a IRE were cultured in the presence of compound as described for FIG. 1, with the exception that one set was placed at 1% oxygen for 24 hours following the first day's medium-change. Cells were treated with M, medium only; D, DMSO; or compounds, as indicated at the following concentrations: 40, 40 μM; 41, 30 μM; 76, 10 μM; 77, 5 μM. […] CWR22R or Hep3B cells were treated with compound and subjected to hypoxia as described above. B-Actin is shown for loading control. Cells were treated with M, medium only; D, DMSO; or compounds, as indicated at the following concentrations: 40, 40 μM; 41, 30 μM; 76, 20 μM; 77, 7.5 μM.
The lack of a functional IRE in HIF-1a represents a clear dichotomy between the two HIF isoforms that allows their translation to be controlled by a different regulatory system.
In general terms: Reporter assays use an easily measured gene product as a stand-in for the process of interest.

A further experiment has as its system HIF-2a mRNA translation. As to the kind of experiment: 35S-methionine pulse-label immunoprecipitation of HIF-2a (translation). As to conditions: 786-O cells. In kind it is cell-based, human. The method, then: Cells were treated with medium only, DMSO, or compound as described for western blots. Following the second day of treatment, cells were washed twice in PBS and then placed into medium only, DMSO, or labeling medium (methionine minus DMEM supplemented with 1× glutamine and 5% dialyzed FBS) and pulse-labeled for 30 minutes at 37° C. with 0.5 mCi ^35S-Methionine (New England Nuclear) per p100 plate. Cells were washed twice in PBS and lysed with RIPA buffer supplemented with protease inhibitors. […] In the case of the pulse-chase experiment, two identically treated plates were placed into chasing medium (DMEM supplemented with 10% Fetal Clone I, 1× Glutamine and 3 mg/mL methionine), placed back into the 37° C. incubator and harvested after 1.5 and 3 hours. Immunoprecipitated samples were subjected to SDS-PAGE, enhanced in sodium salicylate, dried and exposed for 2-3 days before the film was quantified by densitometry.
The effect of HIF inhibitors on protein translation was determined by ^35S-methionine pulse labeling DMSO or compound treated cells. […] Pulse chase experiments confirm that this decrease is not attributable to any effect on the protein half-life (see FIG. 11).
To determine if PGJ2 decreases translation of the HIF2a message, the inventors evaluated the synthesis rate and stability of the newly synthesized HIF2a by an ^35S-methionine pulse chase experiment on PGJ2 or vehicle only DMSO treated 786-O cells. […] Loading control is 1/1000th of the cell lysate used in the respective immunoprecipitation directly loaded into an SDS-PAGE gel.

Experiment [3] has as its system HIF-2a 5′-UTR Iron-Responsive Element (IRE). As to the kind of experiment: Luciferase reporters with HIF-2a 5′-UTR / IRE in 786-O cells. In kind it is cell-based, human. As to conditions: for dependence of effect on the IRE (wild-type or mutant 5′-UTR IRE reporter): 786-O luciferase reporter lines; for dependence of effect on HIF-2a 5′-UTR: HIF-2a promoter luciferase with or without 5′-UTR.

With `CC1(C)CC(=O)C=C(Sc2ccc(C#N)cc2[N+](=O)[O-])S1` [Compound 77, 4-[(2,2-dimethyl-4-oxo-3,4-dihydro-2H-thiin-6-yl)thio]-3-nitrobenzonitrile], the “binding of IRP1 to HIF-2a IRE probe” value in experiment [1] is “enhance binding of IRP1 to the HIF-2a IRE”. For the same compound, the “effect on putative IRE in HIF-1a 5′-UTR” value in experiment [2] is on record as “do not affect putative IRE in HIF-1a 5′-UTR”. For the same compound, the “HIF-2a mRNA translation (newly synthesized HIF-2a protein)” value (“HIF-2a mRNA translation” below) in the experiment on HIF-2a mRNA translation is recorded as “decrease HIF-2a mRNA translation”. Further, in experiment [3], the “dependence of effect on the IRE (wild-type or mutant 5′-UTR IRE reporter)” value (“dependence of effect on the IRE” for short) was “work via the Iron-Responsive Element (IRE)” and the “dependence of effect on HIF-2a 5′-UTR” value is “dependent upon presence of 5′-UTR”.

As to `COC(=O)c1sccc1N/N=C(/C#N)S(C)(=O)=O` [Compound 76, methyl 3-{2-[cyano(methylsulfonyl)methylene] hydrazino}thiophene-2-carboxylate], the “binding of IRP1 to wild-type HIF-2a probe in hypoxia” value in experiment [1] (786-O cells, 24 hours hypoxia) is “enhances binding of IRP1 to wild-type HIF-2a probe in hypoxia”. Moreover, in experiment [1], the “binding of IRP1 to HIF-2a IRE probe” value is “enhance binding of IRP1 to the HIF-2a IRE”. In addition, the “effect on putative IRE in HIF-1a 5′-UTR” value in experiment [2] is recorded as “do not affect putative IRE in HIF-1a 5′-UTR”. Also, the “HIF-2a mRNA translation” value in the experiment on HIF-2a mRNA translation is on record as “decrease HIF-2a mRNA translation”. In experiment [3], the “dependence of effect on the IRE” value is “work via the Iron-Responsive Element (IRE)” and the “dependence of effect on HIF-2a 5′-UTR” value is given as “dependent upon presence of 5′-UTR”.

As for `CCCCC/C=C/C=C1/C(=O)C=C[C@@H]1C/C=C\CCCC(=O)O` [PGJ2, 15-deoxy-Δ^12,14-prostaglandin J2], the “binding of IRP1 to HIF-2a IRE probe” value in experiment [1] was “increased the specific IRE binding activity of cell lysates under conditions of both normoxia and hypoxia”. In addition, the “HIF-2a mRNA translation” value in the experiment with HIF-2a mRNA translation is on record as “significantly decrease the amount of protein translated from the mRNA without decreasing the half-life of the protein”. In experiment [3] (786-O cells, 10 μM), the “effect on synthetic 5′-UTR stem loop reporter (CMV-SL over CMV)” value is “no effect on the synthetic 5′-UTR element”. In addition, in experiment [3], the “dependence of effect on the IRE” value is reported as “completely abolished PGJ2 sensitivity” and the “dependence of effect on HIF-2a 5′-UTR” value is reported as “decreased the luciferase activity derived from the UTR-containing plasmid but not the plasmid driven by the HIF promoter alone”.

On to `C/C(=C\c1ccccc1)C(=O)CCN(C)C.Cl` [Compound 40, 5-(dimethylamino)-2-methyl-1-phenyl-1-penten-3-one hydrochloride], for which the “binding of IRP1 to HIF-2a IRE probe” value in experiment [1] is “enhance binding of IRP1 to the HIF-2a IRE”. Also, in experiment [2], the “effect on putative IRE in HIF-1a 5′-UTR” value is “do not affect putative IRE in HIF-1a 5′-UTR”. Besides, in the experiment with HIF-2a mRNA translation, the “HIF-2a mRNA translation” value is listed as “decrease HIF-2a mRNA translation”. Besides, in experiment [3], the “dependence of effect on the IRE” value is “work via the Iron-Responsive Element (IRE)” and the “dependence of effect on HIF-2a 5′-UTR” value is “dependent upon presence of 5′-UTR”.

Turning to `COc1ccc(O)c(/C=C/C(=O)c2c(O)cc(C)oc2=O)c1` [Compound 41, 4-hydroxy-3-[3-(2-hydroxy-5-meoxyphenyl)acryloyl]-6-methyl-2H-pyran-2-one], in experiment [1], the “binding of IRP1 to HIF-2a IRE probe” value is recorded as “enhance binding of IRP1 to the HIF-2a IRE”. In experiment [2], the “effect on putative IRE in HIF-1a 5′-UTR” value is “do not affect putative IRE in HIF-1a 5′-UTR”. Besides, the “HIF-2a mRNA translation” value in the experiment on HIF-2a mRNA translation is reported as “decrease HIF-2a mRNA translation”. Also, in experiment [3], the “dependence of effect on the IRE” value was “work via the Iron-Responsive Element (IRE)” and the “dependence of effect on HIF-2a 5′-UTR” value was “dependent upon presence of 5′-UTR”.

Values taken from patent publication US10881656B2, “HIF inhibitors and use thereof” (The General Hospital Corporation, priority 2008, dated 2021).
